Consider six molecules from US5523297A, “Inhibition of excessive phospholipase A2 activity and/or production by non-antimicrobial tetracyclines” (The Research Foundation of State University of New York, priority 1995, dated 1996).

What all share (type): biochemical
For test [1], the target named is T1, porcine pancreatic PLA2 (Sus scrofa, UniProt P00592).
T1 construct: radiolabelled E. coli membrane hydrolysis assay
Nature of the test: Inhibition of porcine pancreatic PLA2, E. coli assay. On the procedure: (§1) Six different chemically-modified tetracyclines, including CMT-1 (4-dedimethylaminotetracycline), CMT-2 (tetracyclinonitrile), CMT-3 (6-demethyl-6-deoxy-4-dedimethylaminotetracycline), CMT-4 (4-de-dimethylamino-7-chloro-tetracycline), CMT-5 (pyrazole analog) and CMT-6 (4-hydroxy-4-dedimethylaminotetracycline), were examined for their ability to inhibit PLA2 activity in vitro. The sources of PLA2 that were tested included recombinant human PLA2, human pancreatic and porcine pancreatic PLA2 and Naja naja PLA2. […] Various concentrations of CMTs, ranging from 5-100 μg/ml, were preincubated with the different PLA2 enzymes for 30 minutes and the mixture was tested for PLA2 activity using a known E. coli assay method (see Arthritis and Rheumatism, 34 Supp. 9: p. S160 (abst C167)).
(§2) A chemically-modified tetracycline, 4-dedimethylamino-7-dimethylaminotetracycline (CMT-10), was examined for its ability to inhibit PLA2 activity in vitro. The sources of PLA2 that were tested included were recombinant human PLA2 (snpPLA2), human pancreatic and porcine pancreatic PLA2 and Naja naja PLA2. […] Various concentrations of CMT-10, ranging from 5-100 μg/ml, were preincubated with the different PLA2 enzymes for 30 minutes and the mixture was tested for PLA2 activity using a known E. coli assay method (see Arthritis and Rheumatism, 34 Supp. 9: p. S160 (abst C167)).
(§3) In particular, [^14 C]Oleic acid-labelled Escherichia coli (strain K12 C600) were used as the substrate. This substrate has been characterized with respect to phospholipid composition and distribution of radiolabel. Reaction mixtures contained 10 mg bovine serum albumin, 2 mM CaCl2, 2.8×10^8 radiolabelled E. coli and 0.1M Tris-HCl buffer, pH 7.5 in a total volume of 1.5 ml. Reaction mixtures were incubated at 37° C. for 30 min. The reaction was terminated by filtration through a 0.45 μm Millipore filter, thereby retaining unhydrolysed E. coli membranes, and allowing the [^14 C]oleic acid bound to the BSA carrier, released as a result of PLA2 hydrolysis, to pass through the filter. Assays were performed in duplicate and values shown represent the mean of two determinations with a SD<5% of the mean. Assays were performed in substrate excess and enzyme activities were corrected for non-enzymatichydrolysis. One unit of PLA2 activity is defined as the hydrolysis of 56 pmol of phospholipid substrate (representing 1% of total E. coli phospholipid) in 30 min at 37° C.

Test [2] deals with T2, human pancreatic PLA2 (Homo sapiens, UniProt P04054).
T2 construct: radiolabelled E. coli membrane hydrolysis assay
T2 sequence (P04054 23-148): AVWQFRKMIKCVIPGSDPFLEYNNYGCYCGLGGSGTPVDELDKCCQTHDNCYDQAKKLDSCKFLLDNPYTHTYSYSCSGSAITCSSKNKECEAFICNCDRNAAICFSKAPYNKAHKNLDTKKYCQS
Description: Inhibition of human pancreatic PLA2, E. coli assay. The method, then:
as §1, §2, §3

Test [3] deals with T3, recombinant human PLA2 (snpPLA2) (Homo sapiens, UniProt P14555).
T3 sequence (P14555 21-144): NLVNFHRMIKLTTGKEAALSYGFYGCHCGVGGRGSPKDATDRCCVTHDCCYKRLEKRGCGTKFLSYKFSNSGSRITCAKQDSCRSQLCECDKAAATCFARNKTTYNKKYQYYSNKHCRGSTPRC
Description: Inhibition of recombinant human PLA2, radiolabelled E. coli assay. The method, then: as §1, §2, §3

Where [4] appears, read: concentration required to inhibit 50% of PLA2, 30 min preincubation, read-out: IC50 (converted).
[5] abbreviates: concentrations of 25 μg/ml or greater.

The structures appear in SMILES notation. Read-outs that look alike come from different tables or passages of the source.

T1 sequence (P00592 23-146): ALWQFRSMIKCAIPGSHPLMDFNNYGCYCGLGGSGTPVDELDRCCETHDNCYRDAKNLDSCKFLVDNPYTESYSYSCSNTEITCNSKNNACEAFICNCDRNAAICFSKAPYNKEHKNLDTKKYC

Consider `CC1(O)c2c(Cl)ccc(O)c2C(=O)C2=C(O)C3(O)C(=O)C(C(N)=O)=C(O)CC3CC21` (centres unmarked) [CMT-4, 4-de-dimethylamino-7-chloro-tetracycline], for which the “inhibition of porcine pancreatic PLA2” value in test [1] is listed as “inhibit”. Besides, the “inhibition of human pancreatic PLA2” value in test [2] is “inhibit”. Further, in test [3] (setting [4]), the IC50 was 96.4 µM. The PLA2-inhibitory activity result in test [3] (setting [5]) is recorded as “significant PLA2 -inhibitory activity”.

For `NC(=O)C1=C(O)C2(O)C(=O)C3=C(O)c4c(O)cccc4CC3CC2CC1=O` (centres unmarked) [CMT-3, 6-demethyl-6-deoxy-4-dedimethylaminotetracycline], in test [1], the “inhibition of porcine pancreatic PLA2” value is listed as “inhibit”. Also, in test [2], the “inhibition of human pancreatic PLA2” value is reported as “inhibit”. The PLA2-inhibitory activity entry in test [3] (setting [5]) is on record as “significant PLA2 -inhibitory activity”.

Take `CC1(O)c2cccc(O)c2C(=O)C2=C(O)C3(O)C(=O)C(C(N)=O)=C(O)C(O)C3CC21` (centres unmarked) [CMT-6, 4-hydroxy-4-dedimethylaminotetracycline]: the “inhibition of porcine pancreatic PLA2” value in test [1] was “inhibit”. Moreover, the “inhibition of human pancreatic PLA2” value in test [2] was “inhibit”. Also, in test [3] (setting [4]), the IC50 was 40.7 µM. The PLA2-inhibitory activity entry in test [3] (setting [5]) is recorded as “significant PLA2 -inhibitory activity”.

As to `CN(C)C1C(=O)C(C#N)=C(O)C2(O)C(=O)C3=C(O)c4c(O)cccc4C(C)(O)C3CC12` (centres unmarked) [CMT-2, tetracyclinonitrile], the PLA2-inhibitory activity result in test [3] (even at the highest concentrations tested (range 5-100 μg/ml)) is “lacked any PLA2 -inhibitory activity”.

On to `CC1(O)c2cccc(O)c2C(=O)C2=C(O)C3(O)C(=O)C(C(N)=O)=C(O)CC3CC21` (centres unmarked) [CMT-1, 4-dedimethylaminotetracycline], for which the “inhibition of porcine pancreatic PLA2” value in test [1] is “inhibit”. Moreover, in test [2], the “inhibition of human pancreatic PLA2” value is “inhibit”. Further, the IC50 in test [3] is 92.2 µM. Moreover, the PLA2-inhibitory activity result in test [3] (setting [5]) is listed as “significant PLA2 -inhibitory activity”.

On to `CN(C)c1ccc(O)c2c1C(C)(O)C1CC3CC(O)=C(C(N)=O)C(=O)C3(O)C(O)=C1C2=O` (centres unmarked) [CMT-10, 4-dedimethylamino-7-dimethylaminotetracycline], for which the “inhibition of human pancreatic PLA2” value in test [2] was “inhibit”. The molecule also returned an inhibition at 30 µg/mL in test [2] (concentration of 30 μg/ml) of 66%. The inhibition at 5 µg/mL in test [3] (CMT-10 5 μg/ml) came out at 4 ± 4%. For the same molecule, the inhibition at 10 µg/mL in test [3] (CMT-10 10 μg/ml) came to 12 ± 2%. In addition, the inhibition at 25 µg/mL in test [3] (CMT-10 25 μg/ml) turned out to be 45 ± 1%. In test [3] (CMT-10 50 μg/ml), the inhibition at 50 µg/mL came out at 75 ± 2%. The inhibition at 100 µg/mL in test [3] (CMT-10 100 μg/ml) was found to be 87 ± 2%. In test [3] (setting [4]), the IC50 is 67.5 µM. For the same molecule, the PLA2-inhibitory activity result in test [3] (setting [5]) is “significant PLA2 -inhibitory activity”. In addition, the “inhibition of PLA2 activity” value in test [3] (final concentration of 5 and 10 μg/ml) was “did not exhibit substantial inhibition”.
